In US7687501B2, “Pyridothienopyridazinone derivatives as mGluR1 antagonists” (Schering Corporation, priority 2005, dated 2010) one finds IC50 data, which are given here for 38 compounds.

For orientation: IC50 means the concentration needed to halve the response being measured.

The structures appear in SMILES notation. Like-named read-outs stand apart in the source and are kept apart here.

This test deals with T1, hmGluR1 receptor (Homo sapiens, UniProt Q13255).
T1 construct: expressed in transfected cells; host or cells: CHO
Nature of the test: IC50 determination: intracellular calcium mobilization (FLIPR) upon Quisqualate stimulation in CHO cell line stably expressing hmGluR1. Format: cell-based. Conditions: CHO cells expressing hmGluR1, against Quisqualate 1 μM (EC80), compounds added 10 minutes before Quisqualate. The method, then:
A CHO cell line stably expressing hmGluR1 receptor was established. One day prior to assay, cells were split in growth media at concentration of 50,000 cells/well in a volume of 100 μl and seeded into black clear-bottom 96-well plates. After two to six hours, when cells were well attached to the plate, growth medium was replaced with assay medium (100 μL) consisting of DMEM high glucose, supplemented with GPT (1 U/mL) and sodium pyruvate, 1 mM. Following overnight incubation, medium was discarded and cells were loaded for 2 hours with dye from the Calcium 3 Assay Reagent Kit (Molecular Devices, # R8033), prepared according to manufacturers' instructions. A 96-tip pipettor/fluorometric imaging plate reader (FLIPR 384; Molecular Devices) was used and intracellular calcium mobilization was measured by increases in fluorescence upon agonist Quisqualate stimulation following 6 sec-baseline measurement. Test compounds were added 10 minutes before Quisqualate. IC50 determinations for tested compounds were generated against Quisqualate 1 μM corresponding to EC80 value in a standard dose response curve.

T1 sequence (Q13255 19-1194): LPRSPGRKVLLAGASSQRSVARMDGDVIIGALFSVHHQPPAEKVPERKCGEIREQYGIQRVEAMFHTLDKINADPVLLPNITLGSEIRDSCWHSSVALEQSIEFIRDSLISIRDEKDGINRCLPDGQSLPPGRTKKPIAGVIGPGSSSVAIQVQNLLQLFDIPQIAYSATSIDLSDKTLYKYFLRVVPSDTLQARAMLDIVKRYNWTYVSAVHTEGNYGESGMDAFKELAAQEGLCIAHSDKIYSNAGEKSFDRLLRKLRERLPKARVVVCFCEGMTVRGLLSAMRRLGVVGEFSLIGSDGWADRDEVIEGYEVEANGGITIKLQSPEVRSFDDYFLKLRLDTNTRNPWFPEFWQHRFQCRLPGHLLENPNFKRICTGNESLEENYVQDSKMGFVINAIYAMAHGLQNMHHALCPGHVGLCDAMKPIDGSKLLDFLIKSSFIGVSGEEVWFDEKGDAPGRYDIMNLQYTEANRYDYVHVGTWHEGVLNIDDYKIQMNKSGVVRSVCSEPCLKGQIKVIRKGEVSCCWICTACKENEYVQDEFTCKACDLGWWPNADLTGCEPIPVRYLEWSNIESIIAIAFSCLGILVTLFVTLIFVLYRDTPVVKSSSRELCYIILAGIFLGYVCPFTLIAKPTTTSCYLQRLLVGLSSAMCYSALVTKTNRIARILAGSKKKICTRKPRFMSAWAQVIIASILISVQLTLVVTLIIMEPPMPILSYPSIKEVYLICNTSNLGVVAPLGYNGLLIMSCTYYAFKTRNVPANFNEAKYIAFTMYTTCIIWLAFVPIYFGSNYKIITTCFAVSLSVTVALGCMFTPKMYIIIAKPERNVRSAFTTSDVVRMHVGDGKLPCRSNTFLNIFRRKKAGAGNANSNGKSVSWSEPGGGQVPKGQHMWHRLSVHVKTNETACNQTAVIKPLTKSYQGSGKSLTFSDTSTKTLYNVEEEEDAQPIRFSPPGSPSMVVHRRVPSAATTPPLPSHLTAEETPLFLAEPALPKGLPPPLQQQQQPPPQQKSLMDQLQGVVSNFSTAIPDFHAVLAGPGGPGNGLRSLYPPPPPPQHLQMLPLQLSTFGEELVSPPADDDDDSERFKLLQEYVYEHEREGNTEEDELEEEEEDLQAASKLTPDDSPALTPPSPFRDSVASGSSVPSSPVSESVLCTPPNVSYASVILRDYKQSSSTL

As for `COc1ccc(-n2ncc3c(sc4nccc(OC)c43)c2=O)cc1` [Compound 21B], the IC50 (read-out: mGluR1 IC50 rating) was in the range of 20 to 100 nM.
Same read-out and setting: the figure for `Cc1n[nH]c(=O)c2sc3nccc(N(C)C)c3c12` [Compound 13A] is > 1000 nM.
`CCNc1ccnc2sc3c(=O)n(-c4ccc(C)cc4)ncc3c12` [Compound 23R]: the half-maximal inhibitory concentration (IC50) (read-out: mGluR1 IC50) was 18 nM and the IC50 (read-out: mGluR1 IC50 rating) is < 20 nM.
With `COc1ccnc2sc3c(=O)n(-c4ccc(Cl)cc4)ncc3c12` [Compound 21A], the IC50 (read-out: mGluR1 IC50 rating) was 20 to 100 nM.
For `COc1ccnc2sc3c(=O)n(-c4ccc(C)cc4)ncc3c12` [Compound 21C], the IC50 was 12.8 nM (read-out: mGluR1 IC50) and < 20 nM (read-out: mGluR1 IC50 rating).
Take `COc1ccc(-n2ncc3c(sc4nccc(N5CCC5)c43)c2=O)cc1` [Compound 23L]: for the setting “read-out: mGluR1 IC50 rating”, the IC50 was in the range of 100 to 1000 nM.
As to `COc1ccc(-n2ncc3c(sc4nccc(N(C)N)c43)c2=O)cc1` [Compound 23I], the IC50 is 3.6 nM (read-out: mGluR1 IC50) and < 20 nM (read-out: mGluR1 IC50 rating).
For the compound `O=c1c2sc3nccc(NC4CCC4)c3c2cnn1-c1ccc(Cl)cc1` [Compound 23J], the IC50 (read-out: mGluR1 IC50 rating) fell in the range of 100 to 1000 nM.
With `Cc1ccc(-n2ncc3c(sc4nccc(NC5CC5)c43)c2=O)cc1` [Compound 23G], the IC50 by setting is: (read-out: mGluR1 IC50) 18.5 nM; (read-out: mGluR1 IC50 rating) < 20 nM.
`COc1ccc(-n2ncc3c(sc4ncnc(NC5CC5)c43)c2=O)cc1` [Compound 35B]: the IC50 (read-out: mGluR1 IC50 rating) was in the range of 20 to 100 nM.
Regarding `COc1ccc(-n2ncc3c(sc4nccc(N5CC(O)C5)c43)c2=O)cc1` [Compound 23P], where the note is “read-out: mGluR1 IC50 rating”, the IC50 was in the range of 100 to 1000 nM.
In the case of `CN(C)c1ccnc2sc3c(=O)n(-c4ccc5ncsc5c4)ncc3c12` [Compound 9F], the IC50 runs as follows: (read-out: mGluR1 IC50) 7.8 nM; (read-out: mGluR1 IC50 rating) < 20 nM.
On to `Cc1ccc(-n2ncc3c(sc4nccc(N(C)C)c43)c2=O)cc1` [Compound 9A], for which the IC50 is, setting by setting: (read-out: mGluR1 IC50) 3.6 nM; (read-out: mGluR1 IC50 rating) < 20 nM.
Take `CNc1ccnc2sc3c(=O)n(-c4ccc(OC)cc4)ncc3c12` [Compound 23N]: for the setting “read-out: mGluR1 IC50 rating”, the IC50 lay in the range of 20 to 100 nM.
The same measure, in the same setting: the figure for `O=c1c2sc3nccc(NCCO)c3c2cnn1-c1ccc(Cl)cc1` [Compound 23D] is 20 to 100 nM; for `Cc1nn(C2CCCCC2)c(=O)c2sc3nccc(N(C)C)c3c12` [Compound 13C] it is > 1000 nM; for `CCNc1ccnc2sc3c(=O)n(-c4ccc(Cl)cc4)ncc3c12` [Compound 23K] it is 20 to 100 nM.
As for `CN(C)c1ccnc2sc3c(=O)n(-c4ccc5scnc5c4)ncc3c12` [Compound 9E], the IC50 (read-out: mGluR1 IC50) came to 4.3 nM and the IC50 (read-out: mGluR1 IC50 rating) was < 20 nM.
With `Cc1ccc(-n2ncc3c(sc4nccc(NCCO)c43)c2=O)cc1` [Compound 23H], the half-maximal inhibitory concentration (IC50) (read-out: mGluR1 IC50 rating) was in the range of 100 to 1000 nM.
`O=c1c2sc3nccc(NC4CC4)c3c2cnn1-c1ccc(Cl)cc1` [Compound 23A]: the IC50 (read-out: mGluR1 IC50) came out at 13.7 nM and the IC50 (read-out: mGluR1 IC50 rating) was < 20 nM.
For the compound `CCNc1ncnc2sc3c(=O)n(-c4ccc(OC)cc4)ncc3c12` [Compound 35A], the IC50 (read-out: mGluR1 IC50 rating) lay in the range of 100 to 1000 nM.
Regarding `COc1ccc(-n2ncc3c(sc4nccc(NC5CC5)c43)c2=O)cc1` [Compound 23B], the IC50 (read-out: mGluR1 IC50 rating) lay in the range of 100 to 1000 nM.
Consider `COc1ccc(-n2ncc3c(sc4nccc(N(C)C)c43)c2=O)cc1` [Compound 9B], for which the IC50 is 4.5 nM (read-out: mGluR1 IC50) and < 20 nM (read-out: mGluR1 IC50 rating).
With `COc1ncnc2sc3c(=O)n(-c4ccc(Cl)cc4)ncc3c12` [Compound 34A], the IC50 (read-out: mGluR1 IC50 rating) was 20 to 100 nM.
Take `COc1ccc(-n2ncc3c(sc4nccc(NCCO)c43)c2=O)cc1` [Compound 23F]: the IC50 (read-out: mGluR1 IC50 rating) lay in the range of 100 to 1000 nM.
Same read-out and setting: the figure for `COc1ccc(-n2nc(C)c3c(sc4nccc(N(C)C)c43)c2=O)cc1` [Compound 13D] is > 1000 nM; for `COCCNc1ccnc2sc3c(=O)n(-c4ccc(OC)cc4)ncc3c12` [Compound 23E] it is > 1000 nM.
Regarding `CN(C)c1ccnc2sc3c(=O)n(-c4ccc(Cl)cc4)ncc3c12` [Compound 9C], the IC50 (read-out: mGluR1 IC50) came to 2.4 nM and the IC50 (read-out: mGluR1 IC50 rating) is < 20 nM.
For the compound `CNc1ccnc2sc3c(=O)n(-c4ccc(C)cc4)ncc3c12` [Compound 23Q], the IC50 (read-out: mGluR1 IC50 rating) is 20 to 100 nM.
In the case of `CNc1ccnc2sc3c(=O)n(-c4ccc(Cl)cc4)ncc3c12` [Compound 23C], the IC50 (read-out: mGluR1 IC50 rating) is < 20 nM.
For the compound `C#CCNc1ccnc2sc3c(=O)n(-c4ccc(C)cc4)ncc3c12` [Compound 23S], the IC50 (read-out: mGluR1 IC50 rating) is 20 to 100 nM.
As to `CN(C)c1ccnc2sc3c(=O)n(-c4ccc(Br)cc4)ncc3c12` [Compound 9D], the IC50 by setting is: (read-out: mGluR1 IC50) 2.9 nM; (read-out: mGluR1 IC50 rating) < 20 nM.
Regarding `COc1ccc(-n2ncc3c(sc4ncnc(OC)c43)c2=O)cc1` [Compound 34B], the IC50 (read-out: mGluR1 IC50 rating) was 100 to 1000 nM.
The same measure, in the same setting: the figure for `Cc1ccc(-n2nc(C)c3c(sc4nccc(N(C)C)c43)c2=O)cc1` [Compound 13B] is > 1000 nM.
The same measure, in the same setting: the figure for `CCNc1ccnc2sc3c(=O)n(-c4ccc(OC)cc4)ncc3c12` [Compound 23O] is 100 to 1000 nM; for `C#CCNc1ccnc2sc3c(=O)n(-c4ccc(OC)cc4)ncc3c12` [Compound 23M] it is 100 to 1000 nM; for `CN(C)c1ccnc2sc3c(=O)n(C4CCCCC4)ncc3c12` [Compound 9G] it is 20 to 100 nM.
Turning to `CNc1ncnc2sc3c(=O)n(-c4ccc(OC)cc4)ncc3c12` [Compound 35C], for the setting “read-out: mGluR1 IC50 rating”, the IC50 fell in the range of 100 to 1000 nM.
